# Reference: patent publication US12287324B2, “Companion diagnostics for NSAIDS and donepezil for treating specific subpopulations of patients suffering from Alzheimer's disease” (University of North Texas Health Science Center at Fort …, priority 2018, dated 2025)
# “Also recorded” adds a separate entry of the source.
# System: Individuals with a diagnosis of probable AD
# Test: ADCS anti-inflammatory clinical trial, 1-year exposure; MMSE and CDR-SB outcomes by treatment arm and proinflammatory endophenotype
# Type: in vivo, human
# Conditions: for MMSE Change, mean (SD): change = screening − 12-month, positive = decline; for participants with mild decline in MMSE (number) / participants with mild decline in MMSE (percent of arm): MMSE decline of 1-2 points over 12 mo; for participants who declined 3 or more points on MMSE (number) / participants who declined 3 or more points on MMSE (percent of arm): over 12-months (adverse responders); for participants with improvement in MMSE scores over 12-months (number) / participants with improvement in MMSE scores over 12-months (percent of arm): responders = improved MMSE >=1 point over 12 mo
# Text: Data source. Banked plasma samples from the Alzheimer's Disease Cooperative Studies (ADCS) anti-inflammatory clinical trial were used. […] This was a multicenter, randomized, double-blind, placebo-controlled parallel group trial with 1-year exposure to study medications across forty ambulatory treatment centers affiliated with the ADCS. […] Inclusion criteria were as follows: age 50 or older, MMSE score of 13-26 and diagnosis of probable AD. Stable use of cholinesterase inhibitors was allowed.
# Statistical Analyses. Biomarker data were transformed using the Box-Cox transformation per previously published protocols, relevant portions incorporated herein by reference. Support vector machine (SVM) analyses were utilized to build the proteomic profiles simultaneously classifying all outcome groups in R per the inventors previously published methods, relevant portions incorporated herein by reference. SVM analyses are capable of simultaneously taking into account large volume data to generate an overall profile (e.g., over and under-expression of select proteins) that most accurately classifies multiple outcomes rather than only binary outcomes. MMSE change scores were utilized as the outcome variables for the study (i.e. MMSE screening−MMSE 12-month follow-up=MMSE change). Participants were classified into four groups based on change in MMSE scores over 12-months: responders (improved MMSE scores of >=1 point over 12 mo), stable (no change in MMSE over 12 months), non-responders (MMSE decline of 1-2 points over 12 mo) or adverse responders (MMSE decline of 3 or more points over 12 mo). To build inflammatory profiles of treatment response, group status (i.e. treatment response) was utilized as the outcome variable in SVM models with pre-randomization inflammatory proteins as the predictor variable. In order to determine if the proinflammatory profile of treatment response was drug-specific, analyses were conducted utilizing the total sample as well as within specific study treatment arms.
# Next, MMSE change scores were dichotomized into improvement versus stable or decline over the 12-mo period.
# [1] = High proinflammatory endophenotype (n = 8)
# [2] = Low proinflammatory endophenotype (n = 7)
# [3] = Middle proinflammatory endophenotype (n = 36)
# [4] = within treatment arm, no change in MMSE over 12 months
structure (smiles),measurement,setting,value
"COc1ccc2cc([C@H](C)C(=O)O)ccc2c1 [Naproxen, naproxen]","CDR-SB 12 mo, mean (SD)",[1],5.36 (3.0)
same,"CDR-SB Change, mean (SD)",[1],0.7 (2.5)
same,"MMSE 12 mo, mean (SD)",[1],21.2 (5.3)
same,"MMSE Change, mean (SD)","High proinflammatory endophenotype (n = 8), p = 0.02 vs placebo high group",−0.13 (3.1)
same,"CDR-SB 12 mo, mean (SD)",[2],9.8 (4.1)
same,"CDR-SB Change, mean (SD)",[2],−2.5 (2.1)
same,"MMSE 12 mo, mean (SD)",[2],16.1 (5.5)
same,"MMSE Change, mean (SD)",[2],1.5 (3.1)
same,"CDR-SB 12 mo, mean (SD)",[3],8.4 (4.1)
same,"CDR-SB Change, mean (SD)",[3],−2.6 (2.5)
same,"MMSE 12 mo, mean (SD)",[3],16.5 (6.4)
same,"MMSE Change, mean (SD)",[3],4.2 (4.6)
same,decline / change in MMSE scores over a 12 mo period as compared to the placebo group,"high end of the proinflammatory endophenotype (CRP>1015.52 & TNFα>0.64), F[1,6]=8.2, p=0.03",significantly reduced decline; also recorded: significantly better
same,average score of dichotomized MMSE change (improvement versus stable or decline),"high proinflammatory endophenotype, 12-mo period, Placebo group 0.25",0.63
same,patients improved on MMSE (dichotomized),"high proinflammatory endophenotype, 12-mo period, Placebo group 25%",63%
same,improvement in MMSE scores over 12 months as compared to the Placebo group,"high proinflammatory endophenotype, age, gender, education, APOE4 as covariates, F[1,6]=10.9, p=0.02",significant improvement
same,cognitive course (MMSE) in the low end of the proinflammatory endophenotype,"low end, CRP and TNFα cut-scores of the naproxen-specific algorithm",trend towards those in the low end to experience significant decline
same,participants with mild decline in MMSE (number),within treatment arm,10
same,participants with mild decline in MMSE (percent of arm),within treatment arm,20%
same,participants who declined 3 or more points on MMSE (number),within treatment arm,26
same,participants who declined 3 or more points on MMSE (percent of arm),within treatment arm,51%
same,participants with improvement in MMSE scores over 12-months (number),within treatment arm,10
same,participants with improvement in MMSE scores over 12-months (percent of arm),within treatment arm,20%
"CS(=O)(=O)c1ccc(C2=C(c3ccccc3)C(=O)OC2)cc1 [Rofecoxib, rofecoxib]",participants with mild decline in MMSE (number),within treatment arm,14
same,participants with mild decline in MMSE (percent of arm),within treatment arm,25%
same,participants who remained stable on MMSE (number),[4],8
same,participants who remained stable on MMSE (percent of arm),[4],15%
same,participants who declined 3 or more points on MMSE (number),within treatment arm,23
same,participants who declined 3 or more points on MMSE (percent of arm),within treatment arm,42%
same,participants with improvement in MMSE scores over 12-months (number),within treatment arm,9
same,participants with improvement in MMSE scores over 12-months (percent of arm),within treatment arm,16%
